# From patent US7625923B2, “Bicyclic modulators of androgen receptor function” (Bristol-Myers Squibb Company, priority 2004, dated 2009)
# Experiments:
# [1] = target: glucocorticoid receptor (endogenous, A549 cells) (Homo sapiens, UniProt P04150); conditions: concentration ≦10 μM; 10 ng/mL PMA; 7 h at 37° C.
# Method: The AP-1 assay is a cell-based luciferase reporter assay. A549 cells, which contain endogenous glucocorticoid receptor, were stably transfected with an AP-1 DNA binding site attached to the luciferase gene. Cells are then grown in RPMI+10% fetal calf serum (charcoal-treated)+Penicillin/Streptomycin with 0.5 mg/mL geneticin. Cells are plated the day before the assay at approximately 40000 cells/well. On assay day, the media is removed by aspiration and 20 μL assay buffer (RPMI without phenol red+10% FCS (charcoal-treated)+Pen/Strep) is added to each well. At this point either 20 μL assay buffer (control experiments), the compounds of the present invention (“test compounds”) (dissolved in DMSO and added at varying concentrations) or dexamethasome (100 nM in DMSO, positive control) are added to each well. The plates are then pre-incubated for 15 min at 37° C., followed by stimulation of the cells with 10 ng/mL PMA. The plates are then incubated for 7 h at 37° C. after which 40 μL luciferase substrate reagent is added to each well. Activity is measured by analysis in a luminometer as compared to control experiments treated with buffer or dexamethasome.
# androgen receptor = target: T1, androgen receptor (Rattus norvegicus, UniProt P15207); conditions: castrated rats
# T1 sequence (P15207 1-902): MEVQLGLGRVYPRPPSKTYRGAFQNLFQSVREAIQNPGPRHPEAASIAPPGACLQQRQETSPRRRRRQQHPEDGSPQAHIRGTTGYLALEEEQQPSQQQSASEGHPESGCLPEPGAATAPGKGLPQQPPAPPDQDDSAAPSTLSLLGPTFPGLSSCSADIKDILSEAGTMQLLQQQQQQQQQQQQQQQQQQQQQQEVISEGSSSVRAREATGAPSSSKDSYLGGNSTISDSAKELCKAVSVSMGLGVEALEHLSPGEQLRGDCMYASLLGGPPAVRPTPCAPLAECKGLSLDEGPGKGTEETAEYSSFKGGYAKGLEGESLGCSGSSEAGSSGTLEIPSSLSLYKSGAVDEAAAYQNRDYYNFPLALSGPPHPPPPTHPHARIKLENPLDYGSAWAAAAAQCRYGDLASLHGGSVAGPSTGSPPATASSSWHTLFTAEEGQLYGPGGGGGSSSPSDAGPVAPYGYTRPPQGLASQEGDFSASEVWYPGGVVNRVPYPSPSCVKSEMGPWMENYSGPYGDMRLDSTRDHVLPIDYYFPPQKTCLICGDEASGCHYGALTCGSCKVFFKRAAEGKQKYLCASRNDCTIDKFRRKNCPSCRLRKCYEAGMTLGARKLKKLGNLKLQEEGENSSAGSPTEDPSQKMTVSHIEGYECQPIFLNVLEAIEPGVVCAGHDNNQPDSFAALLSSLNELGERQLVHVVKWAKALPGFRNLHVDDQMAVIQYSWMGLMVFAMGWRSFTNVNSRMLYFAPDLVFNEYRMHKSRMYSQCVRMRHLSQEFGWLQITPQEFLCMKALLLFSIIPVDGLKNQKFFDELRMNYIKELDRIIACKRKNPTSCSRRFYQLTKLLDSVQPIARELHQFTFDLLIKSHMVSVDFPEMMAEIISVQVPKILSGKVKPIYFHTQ
# From the text: The basis of this assay lies in the well-defined action of androgenic agents on the maintenance and growth of muscle tissues and sexual accessory organs in animals and man. […] As described above, the effects of androgens on maintenance of male sexual accessory organs, such as the prostate and seminal vesicles, is well described. Castration results in rapid involution and atrophy of the prostate and seminal vesicles. This effect can be reversed by exogenous addition of androgens. Since both the levator ani muscle and the male sex organs are the tissues most responsive to the effects of androgenic agents, this model is used to determine the androgen dependent reversal of atrophy in the levator ani muscle and the sex accessory organs in immature castrated rats. Sexually mature rats (200-250 g, 6-8 weeks-old, Sprague-Dawley, Harlan) were acquired castrated from the vendor (Taconic). The rats were divided into groups and treated daily for 7 to 14 days with one of the following: • 1. Control vehicle • 2. […] TP plus Bicalutamide (administered p.o. in PEGTW, QD), a recognized antiandrogen, as a reference compound. • 4.
# At the end of the 7-14-day treatment, the animals were sacrificed by carbon dioxide, and the levator ani, seminal vesicle and ventral prostate weighed. […]
# [2] = tested on: wild type AR (MDA 453 cells); conditions: read-out: Kd for [3H]-DHT, Scatchard analysis, 4 h at 37° C.
# Method: For the whole-cell binding assay, human LNCaP cells (T877A mutant AR) or MDA 453 (wild type AR) in 96-well microtiter plates containing RPMI 1640 or DMEM supplemented with 10% charcoal stripped CA-FBS (Cocaleco Biologicals) respectively, were incubated at 37° C. to remove any endogenous ligand that might be complexed with the receptor in the cells.
# For the saturation analysis, the difference between the total binding and the non-specific binding, was defined as specific binding. […] See e.g. D. Rodbard, Mathematics and statistics of ligand assays: an illustrated guide: In: J. Langon and J. J. Clapp, eds., Ligand Assay, Masson Publishing U.S.A., Inc., New York, pp. 45-99, (1981), the disclosure of which is herein incorporated by reference.
# Two replicates were used for each sample.
# [formula] After correcting for non-specific binding, IC50 values were determined. […] C2C12 Mouse Myoblast Transactivation Assay
# Sequence of glucocorticoid receptor (endogenous, A549 cells) (P04150 whole entry): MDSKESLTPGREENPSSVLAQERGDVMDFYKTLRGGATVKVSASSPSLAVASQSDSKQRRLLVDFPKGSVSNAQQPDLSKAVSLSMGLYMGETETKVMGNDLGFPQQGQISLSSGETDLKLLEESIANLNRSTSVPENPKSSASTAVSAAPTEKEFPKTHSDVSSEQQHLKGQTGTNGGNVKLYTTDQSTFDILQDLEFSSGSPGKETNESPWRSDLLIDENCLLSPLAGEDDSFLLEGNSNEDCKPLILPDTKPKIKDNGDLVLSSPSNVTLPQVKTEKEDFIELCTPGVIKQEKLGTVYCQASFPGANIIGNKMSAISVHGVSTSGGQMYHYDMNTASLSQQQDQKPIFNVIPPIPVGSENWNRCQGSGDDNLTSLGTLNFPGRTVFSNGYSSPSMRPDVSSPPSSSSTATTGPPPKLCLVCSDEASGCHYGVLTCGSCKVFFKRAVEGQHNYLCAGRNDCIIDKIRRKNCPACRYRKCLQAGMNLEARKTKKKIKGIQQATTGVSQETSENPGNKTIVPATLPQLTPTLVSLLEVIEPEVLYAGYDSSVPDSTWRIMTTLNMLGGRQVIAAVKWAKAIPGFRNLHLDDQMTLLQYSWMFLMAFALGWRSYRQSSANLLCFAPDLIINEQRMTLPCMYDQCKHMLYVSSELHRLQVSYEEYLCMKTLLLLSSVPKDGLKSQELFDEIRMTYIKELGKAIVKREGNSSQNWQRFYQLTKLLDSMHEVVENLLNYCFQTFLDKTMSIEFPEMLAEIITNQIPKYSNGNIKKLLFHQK
compound,measurement,setting,value
C[C@@H]1C[C@H]2[C@@H]3CCC4=CC(=O)C=C[C@]4(C)[C@@]3(F)[C@@H](O)C[C@]2(C)[C@@]1(O)C(=O)CO [dexamethasone],% inhibition of the AP-1 reporter system vs buffer control with PMA alone,[1],65%
"CCC(=O)O[C@H]1CC[C@H]2[C@@H]3CCC4=CC(=O)CC[C@]4(C)[C@H]3CC[C@]12C [testosterone propionate, Testosterone Propionate]",EC50 (increase in organ weight),androgen receptor,~0.03 mg
tritiated dihydrotestosterone [[^3H]-DHT],Kd,[2],0.7 nM
